Laboratory results reported in ChEMBL document CHEMBL1212923, “Synthesis and in vivo evaluation of phenethylpiperazine amides: selective 5-hydroxytryptamine(2A) receptor antagonists for the treatment of insomnia” (J Med Chem, 2010).
Active and inactive are the calls of the source. The calls are words filed in the database; no cut-off is given here.

Assays:
[1] = molecular target: Cytochrome P450 2C9 (Homo sapiens, UniProt P11712); assay: Inhibition of CYP2C9 in human liver microsomes; type: ADME, Microsome
Cytochrome P450 2C9, sequence (P11712 whole entry): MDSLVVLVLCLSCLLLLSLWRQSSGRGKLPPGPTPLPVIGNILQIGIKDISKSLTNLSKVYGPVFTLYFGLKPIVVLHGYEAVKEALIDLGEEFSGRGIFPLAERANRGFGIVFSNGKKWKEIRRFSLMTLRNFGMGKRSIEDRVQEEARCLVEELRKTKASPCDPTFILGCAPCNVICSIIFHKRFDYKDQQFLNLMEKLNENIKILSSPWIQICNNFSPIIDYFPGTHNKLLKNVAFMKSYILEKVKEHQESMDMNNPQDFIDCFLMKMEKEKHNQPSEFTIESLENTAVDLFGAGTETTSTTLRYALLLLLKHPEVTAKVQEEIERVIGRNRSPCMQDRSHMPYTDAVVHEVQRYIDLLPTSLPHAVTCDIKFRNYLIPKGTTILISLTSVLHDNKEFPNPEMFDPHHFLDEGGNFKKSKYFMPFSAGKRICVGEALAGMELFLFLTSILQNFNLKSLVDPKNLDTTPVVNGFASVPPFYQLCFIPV

[2] = test system: Rattus norvegicus; assay: Cardiotoxicity in telemeterized rat assessed as change in ECG parameter at 10 to 30 mg/kg; type: toxicity, organism-based; set-up: dose 10-30 mg/kg; details: in vivo
[3] = molecular target: 5-hydroxytryptamine receptor 2A (Macaca mulatta, UniProt P50128); assay: Binding affinity to monkey 5HT2A receptor
5-hydroxytryptamine receptor 2A (Macaca mulatta, UniProt P50128), sequence (P50128 whole entry): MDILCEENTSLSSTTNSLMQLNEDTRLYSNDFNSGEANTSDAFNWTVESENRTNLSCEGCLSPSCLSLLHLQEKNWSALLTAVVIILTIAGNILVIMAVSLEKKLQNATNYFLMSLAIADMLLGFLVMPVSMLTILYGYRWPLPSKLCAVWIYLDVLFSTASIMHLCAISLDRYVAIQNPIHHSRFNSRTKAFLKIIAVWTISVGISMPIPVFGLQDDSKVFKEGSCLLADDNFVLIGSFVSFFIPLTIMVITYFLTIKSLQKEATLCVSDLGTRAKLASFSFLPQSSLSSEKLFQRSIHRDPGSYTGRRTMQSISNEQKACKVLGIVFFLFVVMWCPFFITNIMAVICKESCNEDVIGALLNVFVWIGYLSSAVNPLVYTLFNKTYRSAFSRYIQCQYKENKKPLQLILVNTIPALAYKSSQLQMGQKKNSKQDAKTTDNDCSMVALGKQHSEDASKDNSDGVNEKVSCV

[4] = test system: Rhesus monkey; assay: Volume of distribution at steady state in monkey at 3 mg/kg, po; type: ADME, organism-based, Macaca mulatta; set-up: dose 3 mg/kg, route oral; details: in vivo
[5] = Oral bioavailability in dog at 3 mg/kg relative to 2 mg/kg, iv dose; type: ADME, organism-based, Canis lupus familiaris; details: in vivo
[6] = AUClast in monkey at 3 mg/kg, po; type: ADME, organism-based, Macaca mulatta; set-up: time 0 - last, dose 3 mg/kg, route oral; details: rhesus monkey, plasma
[7] = test system: Rattus norvegicus; assay: Effect on behavioral activity in po dosed Sprague-Dawley rat assessed as increase in sleep consolidation after 5 hrs; type: functional, organism-based
[8] = Cmax in dog at 3 mg/kg, po; type: ADME, organism-based, Canis lupus familiaris; set-up: dose 3 mg/kg, route oral; details: in vivo
[9] = test system: Rattus norvegicus; assay: Toxicity in rat assessed as reduction in locomotor activity at 300 mg/kg by rotarod test; type: organism-based; set-up: dose 300 mg/kg; details: in vivo
[10] = Oral bioavailability in mouse at 3 mg/kg relative to 2 mg/kg, iv dose; type: ADME, organism-based; details: in vivo
[11] = molecular target: Cytochrome P450 3A4 (Homo sapiens, UniProt P08684); assay: Inhibition of CYP3A4 in human liver microsomes; type: ADME, Microsome
Cytochrome P450 3A4, sequence (P08684 whole entry): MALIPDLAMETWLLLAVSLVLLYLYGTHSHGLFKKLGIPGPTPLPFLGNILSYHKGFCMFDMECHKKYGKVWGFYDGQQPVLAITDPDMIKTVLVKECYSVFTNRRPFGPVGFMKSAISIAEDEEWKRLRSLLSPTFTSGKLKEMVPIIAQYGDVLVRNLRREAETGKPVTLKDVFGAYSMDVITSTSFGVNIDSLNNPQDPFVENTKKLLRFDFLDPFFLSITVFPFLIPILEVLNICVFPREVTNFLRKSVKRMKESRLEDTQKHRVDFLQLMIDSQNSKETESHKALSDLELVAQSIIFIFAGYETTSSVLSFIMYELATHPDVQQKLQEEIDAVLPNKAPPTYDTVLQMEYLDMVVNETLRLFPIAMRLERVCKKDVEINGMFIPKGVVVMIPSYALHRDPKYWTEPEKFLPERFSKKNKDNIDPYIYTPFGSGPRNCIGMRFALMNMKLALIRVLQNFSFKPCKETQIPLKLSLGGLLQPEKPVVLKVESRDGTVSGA

[12] = Half life in Sprague-Dawley rat at 3 mg/kg, po; type: ADME, organism-based; set-up: dose 3 mg/kg, route oral; details: in vivo
[13] = test system: Rattus norvegicus; assay: Effect on behavioral activity in Sprague-Dawley rat assessed as increase in deep sleep at 0.1 mg/kg, po after 1 hr; type: functional, organism-based; set-up: dose 0.1 mg/kg
[14] = molecular target: 5-hydroxytryptamine receptor 2A (Canis lupus familiaris, UniProt O46635); assay: Binding affinity to dog 5HT2A receptor
5-hydroxytryptamine receptor 2A (Canis lupus familiaris, UniProt O46635), sequence (O46635 whole entry): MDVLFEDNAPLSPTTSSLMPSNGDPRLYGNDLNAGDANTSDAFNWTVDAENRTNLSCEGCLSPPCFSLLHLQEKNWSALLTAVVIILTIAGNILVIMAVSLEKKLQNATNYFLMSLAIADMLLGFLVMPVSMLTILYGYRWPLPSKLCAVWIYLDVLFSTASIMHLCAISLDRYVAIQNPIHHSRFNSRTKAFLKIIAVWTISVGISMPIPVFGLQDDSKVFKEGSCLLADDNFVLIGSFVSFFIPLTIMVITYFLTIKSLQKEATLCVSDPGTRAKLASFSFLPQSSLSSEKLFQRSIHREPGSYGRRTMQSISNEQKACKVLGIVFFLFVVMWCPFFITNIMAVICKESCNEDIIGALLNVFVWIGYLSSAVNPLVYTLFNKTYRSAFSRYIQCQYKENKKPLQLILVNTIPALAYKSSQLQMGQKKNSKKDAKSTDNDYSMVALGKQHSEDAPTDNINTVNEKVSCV

[15] = Cmax in monkey at 3 mg/kg, po; type: ADME, organism-based, Macaca mulatta; set-up: dose 3 mg/kg, route oral; details: rhesus monkey, in vivo
[16] = Half life in mouse at 3 mg/kg, po; type: ADME, organism-based; set-up: dose 3 mg/kg, route oral; details: in vivo
[17] = Total clearance in mouse at 2 mg/kg, iv; type: ADME, organism-based; set-up: dose 2 mg/kg, route intravenous; details: in vivo
[18] = AUClast in mouse at 3 mg/kg, po; type: ADME, organism-based; set-up: time 0 - last, dose 3 mg/kg, route oral; details: plasma
[19] = Total clearance in Sprague-Dawley rat at 2 mg/kg, iv; type: ADME, organism-based; set-up: dose 2 mg/kg, route intravenous; details: in vivo
[20] = test system: Rattus norvegicus; assay: Inhibition of DOI-induced hypolocomotion in Sprague-Dawley rat at 0.3 mg/kg, po administered 25 mins before DOI challenge measured after 10 mins; type: functional, organism-based; set-up: dose 0.3 mg/kg
[21] = Toxicity in mouse assessed as maximum tolerated dose; type: organism-based; details: in vivo
[22] = molecular target: T1, 5-hydroxytryptamine receptor 2C (Homo sapiens, UniProt P28335); type: cell-based, HEK293
T1 sequence (P28335 whole entry): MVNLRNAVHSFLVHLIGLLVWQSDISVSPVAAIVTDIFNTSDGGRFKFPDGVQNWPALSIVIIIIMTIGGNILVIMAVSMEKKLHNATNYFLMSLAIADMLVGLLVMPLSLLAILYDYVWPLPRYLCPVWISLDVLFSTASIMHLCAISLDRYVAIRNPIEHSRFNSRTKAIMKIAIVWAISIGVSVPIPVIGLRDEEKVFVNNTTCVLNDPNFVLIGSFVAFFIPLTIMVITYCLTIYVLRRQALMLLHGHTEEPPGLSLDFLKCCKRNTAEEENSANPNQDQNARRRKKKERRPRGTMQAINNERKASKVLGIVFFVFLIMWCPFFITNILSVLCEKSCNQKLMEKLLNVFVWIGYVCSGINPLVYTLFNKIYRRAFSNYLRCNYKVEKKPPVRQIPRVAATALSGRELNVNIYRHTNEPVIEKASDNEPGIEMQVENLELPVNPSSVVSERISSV

[23] = Oral bioavailability in Sprague-Dawley rat at 3 mg/kg relative to 2 mg/kg, iv dose; type: ADME, organism-based; details: in vivo
[24] = Half life in dog at 3 mg/kg, po; type: ADME, organism-based, Canis lupus familiaris; set-up: dose 3 mg/kg, route oral; details: in vivo
[25] = test system: Rattus norvegicus; assay: Effect on behavioral activity in Sprague-Dawley rat assessed as increase in deep sleep at 0.1 mg/kg, po after 3 to 4 hrs; type: functional, organism-based; set-up: dose 0.1 mg/kg
[26] = Cmax in Sprague-Dawley rat at 10 mg/kg, po; type: ADME, organism-based; set-up: dose 10 mg/kg, route oral; details: in vivo
[27] = Cmax in mouse at 3 mg/kg, po; type: ADME, organism-based; set-up: dose 3 mg/kg, route oral; details: in vivo
[28] = molecular target: Cytochrome P450 2D6 (Homo sapiens, UniProt P10635); assay: Inhibition of CYP2D6 in human liver microsomes; type: ADME, Microsome
Cytochrome P450 2D6, sequence (P10635 whole entry): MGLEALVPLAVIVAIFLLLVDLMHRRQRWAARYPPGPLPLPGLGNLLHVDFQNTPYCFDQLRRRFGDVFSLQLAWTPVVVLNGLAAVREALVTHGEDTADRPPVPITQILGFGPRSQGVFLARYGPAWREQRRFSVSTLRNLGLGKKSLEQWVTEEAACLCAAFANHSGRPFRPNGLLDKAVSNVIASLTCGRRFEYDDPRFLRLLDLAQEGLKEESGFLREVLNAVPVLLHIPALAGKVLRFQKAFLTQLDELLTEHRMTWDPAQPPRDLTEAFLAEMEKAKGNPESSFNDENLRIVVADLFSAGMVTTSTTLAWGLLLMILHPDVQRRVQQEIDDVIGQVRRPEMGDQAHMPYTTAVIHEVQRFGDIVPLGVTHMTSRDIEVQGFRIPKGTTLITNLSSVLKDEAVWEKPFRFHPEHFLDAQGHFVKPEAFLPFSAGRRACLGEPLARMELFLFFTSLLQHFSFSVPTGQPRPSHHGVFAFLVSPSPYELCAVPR

[29] = Toxicity in rat assessed as maximum tolerated dose; type: organism-based; details: in vivo
[30] = Ratio of drug level in brain to plasma in Sprague-Dawley rat at 3 mg/kg, po after 0.75 hrs; type: ADME, organism-based; set-up: dose 3 mg/kg, route oral
[31] = Drug level in Sprague-Dawley rat brain at 0.3 mg/kg, po after 0.75 hrs; type: ADME, organism-based; set-up: dose 0.3 mg/kg, route oral; details: read-out: Drug uptake
[32] = test system: Rattus norvegicus; assay: Toxicity in telemeterized rats assessed as effect on hemodynamics at 10 to 30 mg/kg; type: organism-based; set-up: dose 10-30 mg/kg; details: in vivo
[33] = test system: Canis familiaris; assay: Volume of distribution at steady state in dog at 3 mg/kg, po; type: ADME, organism-based, Canis lupus familiaris; set-up: dose 3 mg/kg, route oral; details: in vivo
[34] = test system: Mus musculus; assay: Toxicity in mouse assessed as reduction in locomotor activity at 300 mg/kg by rotarod test; type: organism-based; set-up: dose 300 mg/kg; details: in vivo
[35] = test system: Canis familiaris; assay: Cardiotoxicity in telemeterized dog assessed as change in ECG parameter at 10 to 30 mg/kg; type: toxicity, organism-based, Canis lupus familiaris; set-up: dose 10-30 mg/kg; details: in vivo
[36] = Protein binding in rat plasma; type: ADME, cell-free; details: read-out: PPB (converted)
[37] = molecular target: 5-hydroxytryptamine receptor 2A (Rattus norvegicus, UniProt P14842); assay: Binding affinity to rat 5HT2A receptor
5-hydroxytryptamine receptor 2A (Rattus norvegicus, UniProt P14842), sequence (P14842 whole entry): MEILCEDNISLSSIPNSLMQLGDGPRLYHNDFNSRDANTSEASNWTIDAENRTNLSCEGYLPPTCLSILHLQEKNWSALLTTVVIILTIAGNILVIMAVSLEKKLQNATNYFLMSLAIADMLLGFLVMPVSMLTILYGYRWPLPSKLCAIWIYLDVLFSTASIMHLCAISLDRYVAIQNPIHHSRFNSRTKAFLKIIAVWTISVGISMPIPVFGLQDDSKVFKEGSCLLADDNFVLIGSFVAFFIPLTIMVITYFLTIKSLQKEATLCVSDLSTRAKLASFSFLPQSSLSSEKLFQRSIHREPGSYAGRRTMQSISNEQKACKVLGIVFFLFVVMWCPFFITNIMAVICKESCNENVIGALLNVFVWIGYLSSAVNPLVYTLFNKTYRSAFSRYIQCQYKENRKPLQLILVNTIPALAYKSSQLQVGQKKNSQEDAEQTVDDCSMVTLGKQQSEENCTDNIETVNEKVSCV

[38] = test system: Mus musculus; assay: Volume of distribution at steady state in mouse at 3 mg/kg, po; type: ADME, organism-based; set-up: dose 3 mg/kg, route oral; details: in vivo
[39] = Protein binding in dog plasma; type: ADME, cell-free, Canis lupus familiaris; details: read-out: PPB (converted)
[40] = molecular target: Cytochrome P450 2C19 (Homo sapiens, UniProt P33261); assay: Inhibition of CYP2C19 in human liver microsomes; type: ADME, Microsome
Cytochrome P450 2C19, sequence (P33261 whole entry): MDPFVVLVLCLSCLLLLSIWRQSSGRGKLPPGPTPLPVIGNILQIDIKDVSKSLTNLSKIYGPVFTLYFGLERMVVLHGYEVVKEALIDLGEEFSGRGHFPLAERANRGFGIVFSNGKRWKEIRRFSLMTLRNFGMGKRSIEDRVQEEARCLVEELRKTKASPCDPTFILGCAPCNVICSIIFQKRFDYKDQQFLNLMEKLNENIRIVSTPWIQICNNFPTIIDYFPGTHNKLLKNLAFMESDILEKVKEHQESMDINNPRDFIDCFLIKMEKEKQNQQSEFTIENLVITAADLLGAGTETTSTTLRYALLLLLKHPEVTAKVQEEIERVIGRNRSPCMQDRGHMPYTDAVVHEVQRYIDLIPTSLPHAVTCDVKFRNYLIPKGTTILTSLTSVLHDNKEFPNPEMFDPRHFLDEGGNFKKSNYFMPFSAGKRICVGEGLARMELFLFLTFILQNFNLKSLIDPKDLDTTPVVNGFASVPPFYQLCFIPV

[41] = Oral bioavailability in monkey at 3 mg/kg relative to 2 mg/kg, iv dose; type: ADME, organism-based, Macaca mulatta; details: rhesus monkey, in vivo
[42] = AUClast in dog at 3 mg/kg, po; type: ADME, organism-based, Canis lupus familiaris; set-up: dose 3 mg/kg, route oral, time 0 - last; details: plasma
[43] = molecular target: T2, Cytochrome P450 1A2 (Homo sapiens, UniProt P05177); assay: Inhibition of CYP1A2 in human liver microsomes; type: ADME, Microsome
T2 sequence (P05177 whole entry): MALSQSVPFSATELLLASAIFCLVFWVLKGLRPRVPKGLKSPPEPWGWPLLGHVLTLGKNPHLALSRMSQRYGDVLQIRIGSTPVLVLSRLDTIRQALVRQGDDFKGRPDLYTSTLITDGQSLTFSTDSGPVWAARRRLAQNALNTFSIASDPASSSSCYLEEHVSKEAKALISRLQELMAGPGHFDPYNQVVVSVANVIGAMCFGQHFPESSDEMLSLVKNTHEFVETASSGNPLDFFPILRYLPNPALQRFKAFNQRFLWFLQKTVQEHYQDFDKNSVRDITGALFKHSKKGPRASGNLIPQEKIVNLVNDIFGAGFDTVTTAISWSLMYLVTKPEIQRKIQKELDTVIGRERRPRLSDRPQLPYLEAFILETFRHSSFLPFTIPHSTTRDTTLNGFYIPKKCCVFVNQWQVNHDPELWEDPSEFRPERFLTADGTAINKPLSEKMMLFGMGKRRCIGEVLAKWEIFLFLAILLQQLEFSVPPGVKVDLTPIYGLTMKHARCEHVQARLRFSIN

[44] = molecular target: Voltage-gated inwardly rectifying potassium channel KCNH2 (Homo sapiens, UniProt Q12809)
Voltage-gated inwardly rectifying potassium channel KCNH2, sequence (Q12809 whole entry): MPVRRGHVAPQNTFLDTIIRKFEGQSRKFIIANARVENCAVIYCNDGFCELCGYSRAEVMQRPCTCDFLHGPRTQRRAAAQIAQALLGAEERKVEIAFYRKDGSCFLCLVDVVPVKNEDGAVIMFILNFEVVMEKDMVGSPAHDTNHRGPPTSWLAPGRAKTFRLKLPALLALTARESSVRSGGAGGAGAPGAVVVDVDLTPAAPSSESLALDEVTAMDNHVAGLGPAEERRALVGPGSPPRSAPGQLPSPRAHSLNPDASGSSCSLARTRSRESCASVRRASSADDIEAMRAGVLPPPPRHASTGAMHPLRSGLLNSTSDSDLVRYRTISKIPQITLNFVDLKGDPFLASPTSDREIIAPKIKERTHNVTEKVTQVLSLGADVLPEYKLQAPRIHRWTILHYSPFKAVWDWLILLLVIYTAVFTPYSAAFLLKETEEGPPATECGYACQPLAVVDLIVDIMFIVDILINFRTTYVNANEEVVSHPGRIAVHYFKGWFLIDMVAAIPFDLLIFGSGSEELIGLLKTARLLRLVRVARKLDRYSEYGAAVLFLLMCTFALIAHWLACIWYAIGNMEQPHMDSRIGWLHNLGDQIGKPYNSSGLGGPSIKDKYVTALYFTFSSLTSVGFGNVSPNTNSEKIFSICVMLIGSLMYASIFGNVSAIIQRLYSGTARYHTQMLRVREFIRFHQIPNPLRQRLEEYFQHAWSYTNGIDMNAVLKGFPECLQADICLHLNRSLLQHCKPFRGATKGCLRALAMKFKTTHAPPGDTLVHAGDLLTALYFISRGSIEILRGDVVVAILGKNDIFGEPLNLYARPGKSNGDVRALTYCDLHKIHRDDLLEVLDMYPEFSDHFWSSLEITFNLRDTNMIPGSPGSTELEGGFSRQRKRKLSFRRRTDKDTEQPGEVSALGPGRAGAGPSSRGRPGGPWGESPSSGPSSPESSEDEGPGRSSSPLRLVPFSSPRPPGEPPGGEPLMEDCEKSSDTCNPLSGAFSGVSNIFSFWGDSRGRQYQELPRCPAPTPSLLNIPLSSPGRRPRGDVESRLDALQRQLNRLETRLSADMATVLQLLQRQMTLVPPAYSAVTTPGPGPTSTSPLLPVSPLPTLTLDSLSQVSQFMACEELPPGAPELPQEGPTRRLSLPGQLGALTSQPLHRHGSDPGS
Description: Inhibition of human ERG by patch clamp electrophysiology assay

[45] = Ratio of drug level in brain to plasma in Sprague-Dawley rat at 0.3 mg/kg, po after 0.75 hrs; type: ADME, organism-based; set-up: dose 0.3 mg/kg, route oral
[46] = molecular target: 5-hydroxytryptamine receptor 2A (Homo sapiens, UniProt P28223); assay: biochemical
5-hydroxytryptamine receptor 2A (Homo sapiens, UniProt P28223), sequence (P28223 whole entry): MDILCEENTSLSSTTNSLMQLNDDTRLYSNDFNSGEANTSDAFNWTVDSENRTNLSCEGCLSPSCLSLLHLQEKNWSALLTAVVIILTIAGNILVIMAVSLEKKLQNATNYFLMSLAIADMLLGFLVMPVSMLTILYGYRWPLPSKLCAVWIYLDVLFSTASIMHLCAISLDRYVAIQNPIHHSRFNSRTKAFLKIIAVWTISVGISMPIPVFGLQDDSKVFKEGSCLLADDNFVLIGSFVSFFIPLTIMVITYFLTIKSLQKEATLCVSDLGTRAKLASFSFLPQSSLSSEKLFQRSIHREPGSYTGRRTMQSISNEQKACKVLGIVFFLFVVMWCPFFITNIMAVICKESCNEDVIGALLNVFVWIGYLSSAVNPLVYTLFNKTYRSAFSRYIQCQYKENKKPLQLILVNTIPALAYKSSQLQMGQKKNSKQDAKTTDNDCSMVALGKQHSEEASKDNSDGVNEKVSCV
Description: Displacement of [125I]DOI from human recombinant 5HT2A receptor expressed in HEK293 cells after 1 hr by scintillation counting

[47] = Drug level in Sprague-Dawley rat plasma at 0.3 mg/kg, po after 0.75 hrs; type: ADME, organism-based; set-up: dose 0.3 mg/kg, route oral; details: read-out: Drug uptake
[48] = Total clearance in dog at 2 mg/kg, iv; type: ADME, organism-based, Canis lupus familiaris; set-up: dose 2 mg/kg, route intravenous; details: in vivo
[49] = Half life in monkey at 3 mg/kg, po; type: ADME, organism-based, Macaca mulatta; set-up: dose 3 mg/kg, route oral; details: rhesus monkey, in vivo
[50] = test system: Canis familiaris; assay: Toxicity in telemeterized dog assessed as effect on hemodynamics at 10 to 30 mg/kg; type: organism-based, Canis lupus familiaris; set-up: dose 10-30 mg/kg; details: in vivo
[51] = Total clearance in monkey at 2 mg/kg, iv; type: ADME, organism-based, Macaca mulatta; set-up: dose 2 mg/kg, route intravenous; details: rhesus monkey, in vivo
[52] = AUClast in Sprague-Dawley rat at 10 mg/kg, po; type: ADME, organism-based; set-up: time 0 - last, dose 10 mg/kg, route oral; details: plasma
[53] = test system: Rattus norvegicus; assay: Volume of distribution at steady state in Sprague-Dawley rat at 3 mg/kg, po; type: ADME, organism-based; set-up: dose 3 mg/kg, route oral; details: in vivo

Structure (SMILES): Cn1cc(Cl)c(C(=O)N2CCN(CC(=O)c3ccc(F)cc3)CC2)n1
- inhibition (INH) [1]: Not Active
- Activity [2]: Non-toxic
- Ki [3]: 1.7 nM
- Vdss [4]: 0.4 L/kg
- bioavailability [5]: 94%
- AUC(0-t) [6]: 872 ng·h/mL
- Activity [7]: Dose-dependent effect
- Cmax [8]: 1260 ng/mL
- Activity [9]: Toxic
- bioavailability [10]: 87%
- inhibition (INH) [11]: Not Active
- half-life [12]: 2 h
- Activity [13]: Active
- Ki [14]: 2.7 nM
- Cmax [15]: 600 ng/mL
- half-life [16]: 0.5 h
- clearance [17]: 93.3 mL/min/kg
- AUC(0-t) [18]: 459 ng·h/mL
- clearance [19]: 93.3 mL/min/kg
- inhibition [20]: Active
- MTD [21]: 300 mg/kg
- Ki [22]: 1410 nM
- bioavailability [23]: 67%
- half-life [24]: 5.2 h
- Activity [25]: Active
- Cmax [26]: 1040 ng/mL
- Cmax [27]: 718 ng/mL
- inhibition (INH) [28]: Not Active
- MTD [29]: 300 mg/kg
- Kp at 0.75 h [30]: 1.18
- concentration at 0.75 h [31]: 23.3 ng/mL
- Activity [32]: Non-toxic
- Vdss [33]: 1.9 L/kg
- Activity [34]: Toxic
- Activity [35]: Non-toxic
- fraction unbound [36]: 0.49
- Ki [37]: 2.4 nM
- Vdss [38]: 1.7 L/kg
- fraction unbound [39]: 0.39
- inhibition (INH) [40]: Not Active
- bioavailability [41]: 26%
- AUC(0-t) [42]: 2940 ng·h/mL
- inhibition (INH) [43]: Not Active
- IC50 [44]: 30000 nM
- Kp at 0.75 h [45]: 1.18
- Ki [46]: 3.7 nM
- concentration at 0.75 h [47]: 19.6 ng/mL
- clearance [48]: 15 mL/min/kg
- half-life [49]: 0.6 h
- Activity [50]: Non-toxic
- clearance [51]: 15 mL/min/kg
- AUC(0-t) [52]: 1180 ng·h/mL
- Vdss [53]: 1.7 L/kg
